Marks after values point to notes of the source that are not given here.
How the values were obtained:
[1] = In vitro transdermal permeation, Franz diffusion cell; conditions: for Cumulative permeated amounts Q t: mean ± SD n = 5; for apparent permeability coefficient K p × 10^−3: Kp = J/Cd, Cd 1.0 × 10^4 μg/mL
[2] = design: method as in ref 8, 9 = [8]; 8 Radl S Kasafirek E Krejci I Alaptide Drugs of the Future 1990 15 445 447 || [9]; 9 Jampílek J Opatrilova R Rezacova A Oktabec Z Dohnal J Inventors; Faculty of Pharmacy, University of Veterinary and Pharmaceutical Sciences Brno, assignee, “Alaptide: Methods of effecting its solubil; conditions: cited from earlier work
CYP1A1 = test system: CYP1A1; design: method as in PMID 3726896, PMID 2905482; conditions: hepatocytes; cited from earlier work
[3] = test system: experimental skin injuries; design: method as in ref 8 = [8]; 8 Radl S Kasafirek E Krejci I Alaptide Drugs of the Future 1990 15 445 447; conditions: rats; cited from earlier work
[4] = design: method as in ref 8, 9 = [8]; 8 Radl S Kasafirek E Krejci I Alaptide Drugs of the Future 1990 15 445 447 || [9]; 9 Jampílek J Opatrilova R Rezacova A Oktabec Z Dohnal J Inventors; Faculty of Pharmacy, University of Veterinary and Pharmaceutical Sciences Brno, assignee, “Alaptide: Methods of effecting its solubil; conditions: octanol-water; cited from earlier work
[5] = design: method as in PMID 3726896, PMID 1687590; conditions: similar metabolic profile also found in man; cited from earlier work
CYP1A2 = test system: CYP1A2; design: method as in PMID 3726896, PMID 2905482; conditions: hepatocytes; cited from earlier work
experimental injury = test system: experimental injury; design: method as in ref 8 = [8]; 8 Radl S Kasafirek E Krejci I Alaptide Drugs of the Future 1990 15 445 447; conditions: pigs; cited from earlier work
CYP1B1 = test system: CYP1B1; design: method as in PMID 3726896, PMID 2905482; conditions: hepatocytes; cited from earlier work
[6] = design: method as in PMID 3726896, PMID 2905482; conditions: cited from earlier work

SMILES: C[C@@H]1NC(=O)C2(CCCC2)NC1=O [Micro, (S)-8-Methyl-6,9-diazaspiro[4.5]decan-7,10-dione]
- log K p ([1]; from buffer): −1.77
- Cumulative permeated amounts Q t ([1]; from buffer, 0.5 h): 12.6 ± 1.9^a μg/cm^2
- Cumulative permeated amounts Q t ([1]; from buffer, 1 h): 40.1 ± 8.0^a μg/cm^2
- Cumulative permeated amounts Q t ([1]; from buffer, 2 h): 150.8 ± 7.2^a μg/cm^2
- Cumulative permeated amounts Q t ([1]; from buffer, 4 h): 418.3 ± 24.6^b μg/cm^2
- Cumulative permeated amounts Q t ([1]; from buffer, 6 h): 1189.0 ± 105.9^d μg/cm^2
- Cumulative permeated amounts Q t ([1]; from buffer, 24 h): 3897.1 ± 295.6^f μg/cm^2
- Cumulative permeated amounts Q t ([1]; from cream 1% (w/w), 0.5 h): 89.9 ± 4.0^a μg/cm^2
- Cumulative permeated amounts Q t ([1]; from cream 1% (w/w), 1 h): 206.7 ± 8.9^a μg/cm^2
- Cumulative permeated amounts Q t ([1]; from cream 1% (w/w), 2 h): 568.7 ± 7.2^b μg/cm^2
- Cumulative permeated amounts Q t ([1]; from cream 1% (w/w), 4 h): 1414.5 ± 21.3^d μg/cm^2
- Cumulative permeated amounts Q t ([1]; from cream 1% (w/w), 6 h): 2533.7 ± 9.2^f μg/cm^2
- Cumulative permeated amounts Q t ([1]; from cream 1% (w/w), 24 h): 10602.6 ± 18.2^h μg/cm^2
- log K p ([1]; from gel): −1.23
- Cumulative permeated amounts Q t ([1]; from gel 1% (w/w), 0.5 h): 220.5 ± 11.1^abc μg/cm^2
- Cumulative permeated amounts Q t ([1]; from gel 1% (w/w), 1 h): 401.6 ± 30.9^c μg/cm^2
- Cumulative permeated amounts Q t ([1]; from gel 1% (w/w), 2 h): 626.4 ± 211.1^d μg/cm^2
- Cumulative permeated amounts Q t ([1]; from gel 1% (w/w), 4 h): 1474.5 ± 306.9^f μg/cm^2
- Cumulative permeated amounts Q t ([1]; from gel 1% (w/w), 6 h): 1927.6 ± 241.2^g μg/cm^2
- Cumulative permeated amounts Q t ([1]; from gel 1% (w/w), 24 h): 13766.8 ± 92.8^i μg/cm^2
- Cumulative permeated amounts Q t ([1]; from ointment 1% (w/w), 0.5 h): 75.3 ± 5.4^cd μg/cm^2
- Cumulative permeated amounts Q t ([1]; from ointment 1% (w/w), 1 h): 84.8 ± 7.3^de μg/cm^2
- Cumulative permeated amounts Q t ([1]; from ointment 1% (w/w), 2 h): 96.7 ± 5.9^fg μg/cm^2
- Cumulative permeated amounts Q t ([1]; from ointment 1% (w/w), 4 h): 112.4 ± 7.3^h μg/cm^2
- Cumulative permeated amounts Q t ([1]; from ointment 1% (w/w), 6 h): 126.4 ± 3.7^i μg/cm^2
- Cumulative permeated amounts Q t ([1]; from ointment 1% (w/w), 24 h): 151.9 ± 9.5^j μg/cm^2
- permeation through the skin, fold more than the nanonized form ([1]; from the buffer and other semisolid pharmaceutical compositions): ca. 2 fold
- lag time T lag ([1]; medium buffer): 0.69 ± 0.38 h
- apparent permeability coefficient K p × 10^−3 ([1]; medium buffer): 16.84 10^−3 cm/h
- nonsteady-state permeation flux J ([1]; medium buffer, linearized Q t vs time, six time points): 168.4 ± 8.7 μg/cm^2/h
- lag time T lag ([1]; medium cream): 0.57 ± 0.01 h
- nonsteady-state permeation flux J ([1]; medium cream): 452.2 ± 0.8 μg/cm^2/h
- apparent permeability coefficient K p × 10^−3 ([1]; medium cream): 45.22 10^−3 cm/h
- lag time T lag ([1]; medium gel): 1.03 ± 0.23 h
- nonsteady-state permeation flux J ([1]; medium gel): 588.0 ± 4.8 μg/cm^2/h
- apparent permeability coefficient K p × 10^−3 ([1]; medium gel): 58.80 10^−3 cm/h

SMILES: C[C@@H]1NC(=O)C2(CCCC2)NC1=O [alaptide, (S)-8-Methyl-6,9-diazaspiro[4.5]decan-7,10-dione]
- solubility [2]: poorly soluble
- stability ([2]; sunlight): stable in the sunlight
- Induction of CYP1A1 (CYP1A1): did not occur
- curing of experimental skin injuries [3]: accelerated curing experimental skin injuries
- experimental log P o/w [4]: 1.39
- excretion [5]: excreted unchanged, mostly via urine
- Induction of CYP1A2 (CYP1A2): did not occur
- skin regeneration after application on experimental injury (experimental injury): faster skin regeneration
- permeation through the skin from ointment ([1]; both forms of alaptide, ointment): minimal
- Induction of CYP1B1 (CYP1B1): did not occur
- toxic effects (including skin irritation) [6]: No toxic effects

— paper PMC3881672, “In Vitro Permeation of Micronized and Nanonized Alaptide from Semisolid Formulations” (The Scientific World Journal, 2013)
